In ChEMBL document CHEMBL5050844 (2019):

What was measured:
[1] = Induction of anti-CD3/CD28 antibodies-stimulated human T cell activation at 4 uM assessed fold increase in IL-2 secretion measured by ELISA assay; type: functional, T cell line
[2] = Induction of anti-CD3/CD28 antibodies-stimulated human T cell activation at 0.3 uM assessed fold increase in IL-2 secretion measured by ELISA assay; type: functional, T cell line
[3] = Induction of anti-CD3 antibodies-stimulated human T cell activation at 8 uM assessed fold increase in IL-2 secretion measured by ELISA assay; type: functional, T cell line; further: reference of the scale not given here
[4] = Induction of anti-CD3 antibodies-stimulated human T cell activation at 1 uM assessed fold increase in IL-2 secretion measured by ELISA assay; type: functional, T cell line; further: reference of the scale not given here
[5] = Induction of anti-CD3/CD28 antibodies-stimulated human T cell activation at 4 uM assessed fold increase in CD25 expression measured by ELISA assay; type: functional, T cell line
[6] = Induction of anti-CD3/CD28 antibodies-stimulated human T cell activation at 1 uM assessed fold increase in CD25 expression measured by ELISA assay; type: functional, T cell line
[7] = Induction of anti-CD3/CD28 antibodies-stimulated human T cell activation at 0.3 uM assessed fold increase in CD25 expression measured by ELISA assay; type: functional, T cell line
[8] = Induction of anti-CD3 antibodies-stimulated human T cell activation at 8 uM assessed fold increase in CD25 expression measured by ELISA assay; type: functional, T cell line; further: reference of the scale not given here
[9] = Induction of anti-CD3 antibodies-stimulated human T cell activation at 1 uM assessed fold increase in CD25 expression measured by ELISA assay; type: functional, T cell line; further: reference of the scale not given here
[10] = Induction of anti-CD3/CD28 antibodies-stimulated human CD4+ T cell activation at 10 uM assessed fold increase in CD69 expression measured by flow cytometry analysis; type: functional, T cell line
[11] = Induction of anti-CD3/CD28 antibodies-stimulated human CD4+ T cell activation at 10 uM assessed fold increase in cell proliferation measured by flow cytometry analysis; type: functional, T cell line
[12] = Induction of anti-CD3/CD28 antibodies-stimulated human CD4+ T cell activation at 1.11 uM assessed fold increase in cell proliferation measured by flow cytometry analysis; type: functional, T cell line
[13] = Induction of anti-CD3/CD28 antibodies-stimulated human CD8+ T cell activation at 1.11 uM assessed fold increase in CD69 expression measured by flow cytometry analysis; type: functional, T cell line
[14] = Induction of anti-CD3/CD28 antibodies-stimulated human CD8+ T cell activation at 10 uM assessed fold increase in cell proliferation measured by flow cytometry analysis; type: functional, T cell line
[15] = Induction of anti-CD3/CD28 antibodies-stimulated human CD8+ T cell activation at 1.11 uM assessed fold increase in cell proliferation measured by flow cytometry analysis; type: functional, T cell line
[16] = Induction of anti-CD3 antibodies-stimulated human CD4+ T cell activation at 10 uM assessed fold increase in CD69 expression measured by flow cytometry analysis; type: functional, T cell line; further: reference of the scale not given here
[17] = Induction of anti-CD3 antibodies-stimulated human CD4+ T cell activation at 1.11 uM assessed fold increase in CD69 expression measured by flow cytometry analysis; type: functional, T cell line; further: reference of the scale not given here
[18] = Induction of anti-CD3 antibodies-stimulated human CD8+ T cell activation at 10 uM assessed fold increase in CD69 expression measured by flow cytometry analysis; type: functional, T cell line; further: reference of the scale not given here
[19] = Induction of anti-CD3 antibodies-stimulated human CD8+ T cell activation at 1.11 uM assessed fold increase in CD69 expression measured by flow cytometry analysis; type: functional, T cell line; further: reference of the scale not given here
[20] = Induction of anti-CD3/CD28 antibodies-stimulated human T cell activation at 10 uM assessed fold increase in GM-CSF secretion measured by ELISA assay; type: functional, T cell line
[21] = Induction of anti-CD3 antibodies-stimulated human T cell activation at 10 uM assessed fold increase in GM-CSF secretion measured by ELISA assay; type: functional, T cell line; further: reference of the scale not given here
[22] = Induction of anti-CD3 antibodies-stimulated human T cell activation at 1.11 uM assessed fold increase in GM-CSF secretion measured by ELISA assay; type: functional, T cell line; further: reference of the scale not given here
[23] = Induction of anti-CD3/CD28 antibodies-stimulated human T cell activation at 10 uM assessed fold increase in IFN-gamma secretion measured by ELISA assay; type: functional, T cell line
[24] = Induction of anti-CD3/CD28 antibodies-stimulated human T cell activation at 1.11 uM assessed fold increase in IFN-gamma secretion measured by ELISA assay; type: functional, T cell line
[25] = Induction of anti-CD3 antibodies-stimulated human T cell activation at 10 uM assessed fold increase in IFN-gamma secretion measured by ELISA assay; type: functional, T cell line; further: reference of the scale not given here
[26] = Induction of anti-CD3 antibodies-stimulated human T cell activation at 1.11 uM assessed fold increase in IFN-gamma secretion measured by ELISA assay; type: functional, T cell line; further: reference of the scale not given here
[27] = Induction of allogenic human T cell activation at 10 uM assessed fold increase in cell proliferation; type: functional, T cell line
[28] = Induction of allogenic human T cell activation at 3 uM assessed fold increase in cell proliferation; type: functional, T cell line
[29] = Induction of anti-CD3 antibodies-stimulated human exhausted T cell activation assessed fold increase in IFN-gamma secretion measured by ELISA assay; type: functional, T cell line; further: reference of the scale not given here
[30] = Induction of anti-CD3 antibodies-stimulated human exhausted T cell activation assessed fold increase in IL-2 secretion measured by ELISA assay; type: functional, T cell line; further: reference of the scale not given here
[31] = Induction of anti-CD3 antibodies-stimulated human exhausted T cell activation assessed fold increase in GM-CSF secretion measured by ELISA assay; type: functional, T cell line; further: reference of the scale not given here
[32] = Induction of anti-CD3 antibodies-stimulated human exhausted CD4+ T cell activation assessed fold increase in CTLA4 expression measured by flow cytometry analysis; type: functional, T cell line; further: reference of the scale not given here
[33] = Induction of anti-CD3/CD28 antibodies-stimulated human anergic T cell activation at 10 uM assessed fold increase in IFN-gamma secretion measured by ELISA assay; type: functional, T cell line
[34] = Induction of anti-CD3/CD28 antibodies-stimulated human anergic T cell activation at 1.11 uM assessed fold increase in IFN-gamma secretion measured by ELISA assay; type: functional, T cell line
B cell = test: Induction of anti-IgM-stimulated human CD20+ B cell activation at 10 to 1000 uM assessed as increase in CD69 expression measured as mean fluorescence intensity AUC by flow cytometry analysis; type: functional, cell-based; conditions: dose 10-1000 µM
[35] = Induction of activation of human CD56+ CD3- NK cells co-cultured with human K562 cells in 1:1 ratio and assessed as increase in IFN-gamma secretion at 10 uM measured by ELISA assay; type: functional, Natural killer cell
[36] = Induction of activation of human CD56+ CD3- NK cells co-cultured with human K562 cells in 1:1 ratio and assessed as increase in IFN-gamma secretion at 0.625 uM measured by ELISA assay; type: functional, Natural killer cell
[37] = Induction of activation of human CD56+ CD3- NK cells co-cultured with human K562 cells in 1:1 ratio and assessed as increase in TNF-alpha secretion at 2.5 uM measured by ELISA assay; type: functional, Natural killer cell
[38] = Induction of activation of human CD56+ CD3- NK cells co-cultured with human K562 cells in 1:1 ratio and assessed as increase in TNF-alpha secretion at 0.625 uM measured by ELISA assay; type: functional, Natural killer cell

Compound	fold change (FC) [1]	fold change (FC) [2]	fold change (FC) [3]	fold change (FC) [4]	fold change (FC) [5]	fold change (FC) [6]	fold change (FC) [7]	fold change (FC) [8]	fold change (FC) [9]	fold change (FC) [10]	fold change (FC) [11]	fold change (FC) [12]	fold change (FC) [13]	fold change (FC) [14]	fold change (FC) [15]	fold change (FC) [16]	fold change (FC) [17]	fold change (FC) [18]	fold change (FC) [19]	fold change (FC) [20]	further results
C[C@H](Cc1nncn1C)c1cccc(NC(=O)c2cc3cc(N4CCNCC4)ccc3cn2)c1.Cl	2.51	<=1	0.101	0.101	1.01	1.01	1.01	0.801	0.801	1.401	>4	3.01	<=1.2	2.01	2.01	1.401	1.401	1.201	<=1.2	2.01	fold change (FC) [21]: 1.51; fold change (FC) [22]: 1.51; fold change (FC) [23]: <=2; fold change (FC) [24]: <=2; fold change (FC) [25]: <=2; fold change (FC) [26]: <=2; fold change (FC) [27]: <=2; fold change (FC) [28]: <=2; fold change (FC) [29]: >1.61; fold change (FC) [30]: <=2.5; fold change (FC) [31]: <=1.4; fold change (FC) [32]: 1.41; fold change (FC) [33]: 2.51; fold change (FC) [34]: <=2.5; AUC (B cell): 1.01; fold change (FC) [35]: 2.01; fold change (FC) [36]: 1.01; fold change (FC) [37]: <=1; fold change (FC) [38]: <=1
Cn1cnnc1CC1(c2cccc(NC(=O)c3nc4c(C(F)(F)F)cccc4[nH]3)c2)COC1	>=7.5	2.51	>=0.201	0.101	1.51	1.51	1.31	>=1.001	0.801	>1.601	>4	>4	1.201	3.01	3.01	>1.601	>1.601	1.401	1.201	>4	fold change (FC) [21]: 2.01; fold change (FC) [22]: <=1.5; fold change (FC) [23]: 2.01; fold change (FC) [24]: >4; fold change (FC) [25]: 2.01; fold change (FC) [26]: <=2; fold change (FC) [27]: <=2; fold change (FC) [28]: <=2; fold change (FC) [29]: 1.41; fold change (FC) [30]: >3.01; fold change (FC) [31]: <=1.4; fold change (FC) [32]: >1.61; fold change (FC) [33]: >4.01; fold change (FC) [34]: 2.51; AUC (B cell): 0.5; fold change (FC) [35]: 2.01; fold change (FC) [36]: 2.01; fold change (FC) [37]: 1.01; fold change (FC) [38]: 1.01
C[C@H](Cc1nncn1C)c1cccc(NC(=O)c2cccc(CCO)n2)c1	2.51	1.01	0.151	0.051	1.31	1.01	1.01	0.801	<=0.6	1.201	3.01	<=2	<=1.2	2.01	<=2	1.201	<=1.2	<=1.2	<=1.2	1.51	fold change (FC) [21]: 1.51; fold change (FC) [22]: <=1.5; fold change (FC) [23]: >4; fold change (FC) [24]: <=2; fold change (FC) [25]: <=2; fold change (FC) [26]: <=2; fold change (FC) [27]: <=2; fold change (FC) [28]: <=2; fold change (FC) [29]: <=1.4; fold change (FC) [30]: <=2.5; fold change (FC) [31]: <=1.4; fold change (FC) [32]: <=1.4; fold change (FC) [33]: 2.51; fold change (FC) [34]: <=2.5; AUC (B cell): 1.01; fold change (FC) [35]: 2.01; fold change (FC) [36]: 1.01; fold change (FC) [37]: 1.01; fold change (FC) [38]: <=1
